{
  "source": "PubChem BioAssay AID449750",
  "about": "(Broad Institute, 2010)",
  "note": "The source made the active and inactive calls. How the calls were made is not given here.",
  "data": [
    {"assay": "non-covalent RecA intein splicing inhibitors, dose response, biochemical, cell-free, fluorescence, secondary screen (AID 449750)", "values": [
      {"smiles": "CC(C)OC(=O)CN1C(=O)C(=O)c2ccccc21", "AC50": "37.2 µM"},
      {"smiles": "CCCc1[nH]nc2c1C(c1ccc(OCCN3CCOCC3)c(OC)c1)C(C#N)=C(N)O2", "note": "(stereo not given)", "AC50": "> 38 µM (inactive)"},
      {"smiles": "COc1ccc(/C=C2/SC(=S)N(CCCC(=O)Nc3cccc(O)c3)C2=O)cc1", "AC50": "> 38 µM (inactive)"},
      {"smiles": "CC(C)[C@H](NC(=O)OC(C)(C)C)c1nnc(S(=O)(=O)Cc2c(F)cccc2Cl)o1", "AC50": "> 38 µM (inactive)"},
      {"smiles": "O=C(Nc1ccc(Cl)cc1)/C(=C/c1cccc(O)c1)c1nc2ccccc2s1", "AC50": "3.1 µM"},
      {"smiles": "CCCCNC1=CC(=O)C(=O)c2ccccc21", "AC50": "7.53 µM"},
      {"smiles": "Cc1ccccc1N1C(=O)C(Cl)=C(N2CCOCC2)C1=O", "AC50": "> 38 µM (inactive)"},
      {"smiles": "CSc1nc(-c2ccc(Cl)cc2)nn1C(=O)c1ccco1", "AC50": "> 38 µM (inactive)"},
      {"smiles": "COC(=O)CSc1nc2sc3c(c2c(=O)n1C1CCCCC1)CCN(C)C3", "AC50": "> 38 µM (inactive)"},
      {"smiles": "CCCc1c(C)c2c(C)[nH]nc2oc1=O", "AC50": "> 38 µM (inactive)"},
      {"smiles": "Clc1ccc(CSC(Cn2ccnc2)c2ccc(Cl)cc2Cl)cc1", "note": "(stereo not given)", "AC50": "8.47 µM"},
      {"smiles": "CCCc1[nH]nc2c1C(c1ccc(OC(=O)c3ccco3)cc1)C(C#N)=C(N)O2", "note": "(stereo not given)", "AC50": "> 38 µM (inactive)"},
      {"smiles": "CC1(C)Nc2ccc(O)cc2-c2c1ssc2=S", "AC50": "> 38 µM (inactive)"},
      {"smiles": "O=c1cc(-c2ccc(C3CCCCC3)cc2)[nH][nH]1", "AC50": "7.41 µM"},
      {"smiles": "CCOc1cc(/C=C2/C(=N)N3C(=NC2=O)SN=C3S(=O)(=O)C(C)C)ccc1OC(=O)c1ccco1", "AC50": "> 38 µM (inactive)"},
      {"smiles": "CC(=O)NCCn1c(SCC(=O)NCc2ccco2)nc2ccccc2c1=O", "AC50": "> 38 µM (inactive)"},
      {"smiles": "CCCCNC(=O)c1c(N)n(Cc2ccc3c(c2)OCO3)c2nc3ccccc3nc12", "AC50": "7.9 µM"},
      {"smiles": "Clc1ccc(Sc2oc(/C=N/n3cnnc3)cc2Br)cc1", "AC50": "> 38 µM (inactive)"},
      {"smiles": "CCOC(=O)c1nnc(-c2cccs2)nc1Oc1ccc(Cl)cc1", "AC50": "> 38 µM (inactive)"},
      {"smiles": "CC(C)CCn1c(Sc2nc3ccccc3o2)nc2c1c(=O)[nH]c(=O)n2C", "AC50": "5.08 µM"},
      {"smiles": "COC(=O)C1=C(C)NC(=S)NC1c1ccc(OC(=O)c2ccco2)cc1", "note": "(stereo not given)", "AC50": "> 38 µM (inactive)"},
      {"smiles": "O=C(CSc1nnc(-c2ccccc2Cl)o1)Oc1ccc(Br)cc1", "AC50": "> 38 µM (inactive)"},
      {"smiles": "O=C(CCl)N1CCCC1c1ccc2c(c1)OCCO2", "note": "(stereo not given)", "AC50": "4.86 µM"},
      {"smiles": "CC(=O)N(Cc1ccc(F)cc1)C1=C(NCCc2ccccc2)C(=O)c2ccccc2C1=O", "AC50": "7.58 µM"},
      {"smiles": "Cc1nn(C(=O)c2cccnc2)c(C)c1Sc1ccc(Br)cc1", "AC50": "24.5 µM"},
      {"smiles": "COc1ccccc1-c1cc(C(F)(F)F)nc(S(=O)(=O)CCCC(=O)N2CCCCC2C)n1", "note": "(stereo not given)", "AC50": "> 38 µM (inactive)"},
      {"smiles": "Cc1ccc(C2CC(c3cccs3)=NN2C(=O)CSC2=NCCS2)cc1", "note": "(stereo not given)", "AC50": "9.96 µM"},
      {"smiles": "Cc1ccc(C)c(S(=O)(=O)/N=C2\\C=C(NS(=O)(=O)c3ccccc3)C(=O)c3ccccc32)c1", "AC50": "2.79 µM"},
      {"smiles": "CCCc1[nH]nc2c1C(c1ccsc1)C(C#N)=C(N)O2", "note": "(stereo not given)", "AC50": "> 38 µM (inactive)"},
      {"smiles": "COc1cccc(-n2nnnc2S(C)(=O)=O)c1", "AC50": "> 38 µM (inactive)"},
      {"smiles": "Cc1ccc(C(=O)N/N=C/c2ccc(-c3ccccc3[N+](=O)[O-])o2)cn1", "AC50": "9.17 µM"},
      {"smiles": "O=C(CNC(=O)C1COc2ccccc2O1)N/N=C\\c1ccccc1Cl", "note": "(stereo not given)", "AC50": "> 38 µM (inactive)"},
      {"smiles": "Cc1cc(C(=O)CN2C(=O)c3ccccc3C2=O)c(C)n1C1CC1", "AC50": "> 38 µM (inactive)"},
      {"smiles": "CS(=O)(=O)C1=NN2C(=N)/C(=C\\c3ccc(OC(=O)c4ccco4)cc3)C(=O)N=C2S1", "AC50": "> 38 µM (inactive)"},
      {"smiles": "Cc1[nH][nH]c(=O)c1C(c1ccc(-c2ccc(F)cc2)o1)c1c(C)[nH][nH]c1=O", "AC50": "3.95 µM"},
      {"smiles": "Cc1[nH]n(-c2ccccc2)c(=O)c1C(c1ccc(O)c([N+](=O)[O-])c1)c1c(C)[nH]n(-c2ccccc2)c1=O", "AC50": "2.77 µM"},
      {"smiles": "CCCCOC(=O)CNc1nnc(SCC(=O)OCC)[nH]c1=O", "AC50": "> 38 µM (inactive)"},
      {"smiles": "O=C(Cc1ccccc1F)Nc1nc2ccccc2[nH]1", "AC50": "> 38 µM (inactive)"},
      {"smiles": "CCc1ccc(N2C(=O)C(Cl)=C(N3CCOCC3)C2=O)cc1", "AC50": "> 38 µM (inactive)"},
      {"smiles": "COc1ccc(-c2[nH]nc3c2C(c2ccccc2OC(=O)N2CCOCC2)C(C#N)=C(N)O3)cc1", "note": "(stereo not given)", "AC50": "38.2 µM"}
    ]}
  ]
}
